US10550105B2 (Ribon Therapeutics Inc., priority 2018, dated 2020)

These molecules were tested against PARP7 (Homo sapiens (Human), UniProt Q7Z3E1) (assay: Enzymatic assay for inhibition of PARP7: TR-FRET displacement of biotinylated Probe A from the TIPARP active site). Conditions: Table A-1.
Sequence of PARP7 (Q7Z3E1 whole entry): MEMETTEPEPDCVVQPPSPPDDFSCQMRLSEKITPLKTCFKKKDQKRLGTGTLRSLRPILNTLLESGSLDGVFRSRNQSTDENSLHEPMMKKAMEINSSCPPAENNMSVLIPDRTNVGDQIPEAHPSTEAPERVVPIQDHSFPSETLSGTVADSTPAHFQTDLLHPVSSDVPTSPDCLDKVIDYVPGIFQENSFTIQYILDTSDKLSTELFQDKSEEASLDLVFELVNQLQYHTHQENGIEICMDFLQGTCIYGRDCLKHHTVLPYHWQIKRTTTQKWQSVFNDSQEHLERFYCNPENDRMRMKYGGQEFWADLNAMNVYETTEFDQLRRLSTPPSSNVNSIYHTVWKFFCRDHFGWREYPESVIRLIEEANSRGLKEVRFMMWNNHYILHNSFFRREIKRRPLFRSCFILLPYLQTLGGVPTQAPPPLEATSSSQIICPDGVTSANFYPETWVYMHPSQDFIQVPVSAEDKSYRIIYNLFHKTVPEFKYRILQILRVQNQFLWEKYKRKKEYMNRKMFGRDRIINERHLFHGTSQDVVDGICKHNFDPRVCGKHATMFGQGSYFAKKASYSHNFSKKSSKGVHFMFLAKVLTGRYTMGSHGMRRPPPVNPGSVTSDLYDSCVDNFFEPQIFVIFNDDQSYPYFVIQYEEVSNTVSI
Format: binding
Outline: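 Displacement of biotinylated Probe A from TIPARP was measured as the 665/615 nm time-resolved FRET ratio (excitation 320 nm, 90 μs delay) after a further 30 min at 25 °C. Inhibition across compound concentrations was fitted by dose-response regression, with the Hill slope free or fixed at 1 (3-parameter fit).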
In the case of N#Cc1ccc(N2CCN(C(=O)C[C@H]3CC[C@@H](CNc4cn[nH]c(=O)c4C(F)(F)F)O3)CC2)nc1 (single isomer, unassigned) [Example 581 Isomer A], the IC50 is reported as less than 100 nM. “6-(4-[3-[(2R)-2-[[6-Oxo-5-(trifluoromethyl)-1,6-dihydropyridazin-4-yl]amino]-2-phenylethoxy]propanoyl]piperazin-1-yl)pyridine-3-carbonitrile [Example 515A]” was tested, and the IC50 was no less than 1000 nM. For CC(=O)N1CCC(COc2cc3c(cc2F)CN(c2cn[nH]c(=O)c2C(C)C)C3)CC1 [Example 489, 5-(5-((1-Acetylpiperidin-4-yl)methoxy)-6-fluoroisoindolin-2-yl)-4-isopropylpyridazin-3(2H)-one], the IC50 was no less than 1000 nM. N#Cc1ccc(N2CCN(C(=O)c3cccc(OCC4COCCN4c4cn[nH]c(=O)c4C(F)(F)F)c3)CC2)nc1 (stereo not shown) [Example 71, 6-(4-[[3-([4-[6-oxo-5-(trifluoromethyl)-1,6-dihydropyridazin-4-yl]morpholin-3-yl]methoxy)phenyl]carbonyl]piperazin-1-yl)pyridine-3-carbonitrile] gave an IC50 of 100 to 1000 nM. With O=C(C[C@@H]1CC[C@@H](CNc2cn[nH]c(=O)c2C(F)(F)F)O1)N1CCN(c2ncc(Cl)cn2)CC1 (single isomer, unassigned) [Example 567 Isomer C] the IC50 was less than 100 nM. Molecule COC[C@@H](COCCC(=O)N1CCN(c2ncc(C(F)(F)F)cn2)CC1)Nc1cn[nH]c(=O)c1Br [Example 668, (S)-4-Bromo-5-((1-methoxy-3-(3-oxo-3-(4-(5-(trifluoromethyl)pyrimidin-2-yl)piperazin-1-yl)propoxy)propan-2-yl)amino)pyridazin-3(2H)-one] has an IC50 of less than 100 nM. With O=c1[nH]ncc(N2Cc3cccc(OCC4CCOC4)c3C2)c1C(F)(F)F (stereo not shown) [Example 200, 5-(4-((Tetrahydrofuran-3-yl)methoxy)isoindolin-2-yl)-4-(trifluoromethyl)pyridazin-3(2H)-one] the IC50 was less than 100 nM. With C[C@@H](COCCC(=O)N1CCN(c2ccc(C#N)cn2)CC1)Oc1cn[nH]c(=O)c1C(F)(F)F [Example 530A, 6-(4-[3-[(2S)-2-[[6-Oxo-5-(trifluoromethyl)-1,6-dihydropyridazin-4-yl]oxy]propoxy]propanoyl]piperazin-1-yl)pyridine-3-carbonitrile] the IC50 was less than 100 nM. COC[C@@H](COCCC(=O)N1CCN(c2ncc(Cl)cn2)CC1)Nc1cn[nH]c(=O)c1C(F)(F)F [Example 558, 5-[[(2S)-1-[3-[4-(5-Chloropyrimidin-2-yl)piperazin-1-yl]-3-oxopropoxy]-3-methoxypropan-2-yl]amino]-4-(trifluoromethyl)-2,3-dihydropyridazin-3-one] showed an IC50 of less than 100 nM. O=C(C[C@@H]1CC[C@H](COc2cn[nH]c(=O)c2C(F)(F)F)O1)N1CCN(c2ncc(C(F)(F)F)cn2)CC1 [Example 574 Isomer D, 5-(((2R,5S)-5-(2-Oxo-2-(4-(5-(trifluoromethyl)pyrimidin-2-yl)piperazin-1-yl)ethyl)-tetrahydrofuran-2-yl)methoxy)-4-(trifluoromethyl)pyridazin-3(2H)-one] was tested, and the IC50 was less than 100 nM. O=c1[nH]ncc(N2Cc3cccc(OC4CCN(C(c5ccccc5)c5ccccc5)CC4)c3C2)c1C(F)(F)F [Example 27, 5-(4-[[1-(diphenylmethyl)piperidin-4-yl]oxy]-2,3-dihydro-1H-isoindol-2-yl)-4-(trifluoromethyl)-2,3-dihydropyridazin-3-one] was tested, and the IC50 was 100 to 1000 nM. Work on CN(CCOCCC(=O)N1CCN(c2ccc(C#N)cn2)CC1)c1cn[nH]c(=O)c1C(F)(F)F [Example 510, 6-[4-[3-(2-[Methyl[6-oxo-5-(trifluoromethyl)-1,6-dihydropyridazin-4-yl]amino]ethoxy)propanoyl]piperazin-1-yl]pyridine-3-carbonitrile] yielded an IC50 of less than 100 nM. In the case of N#Cc1c(N2Cc3cccc(OCCO)c3C2)cn[nH]c1=O [Example 176, 5-(4-(2-Hydroxyethoxy)isoindolin-2-yl)-3-oxo-2,3-dihydropyridazine-4-carbonitrile], the IC50 is reported as no less than 1000 nM. C[C@@H](COCCC(=O)N1CCC(c2ncc(C(F)(F)F)cn2)CC1)Nc1cn[nH]c(=O)c1C(F)(F)F [Example 664, (S)-5-((1-(3-Oxo-3-(4-(5-(trifluoromethyl)pyrimidin-2-yl)piperidin-1-yl)propoxy)propan-2-yl)amino)-4-(trifluoromethyl)pyridazin-3(2H)-one] showed an IC50 of less than 100 nM. N#CCC1c2ccccc2CN1c1cn[nH]c(=O)c1C(F)(F)F (stereo not shown) [Example 330, 2-(2-(6-Oxo-5-(trifluoromethyl)-1,6-dihydropyridazin-4-yl)isoindolin-1-yl)acetonitrile] was tested, and the IC50 was no less than 1000 nM. N#Cc1ccc(N2CCN(C(=O)CNCCOc3cccc4c3CN(c3cn[nH]c(=O)c3C(F)(F)F)C4)CC2)nc1 [Example 491, 6-(4-((2-((2-(6-Oxo-5-(trifluoromethyl)-1,6-dihydropyridazin-4-yl)isoindolin-4-yl)oxy)ethyl)glycyl)piperazin-1-yl)nicotinonitrile] was tested, and the IC50 was less than 100 nM. Molecule COc1ccc2c(n1)CN(c1cn[nH]c(=O)c1C(F)(F)F)C2 [Example 303, 5-(2-Methoxy-5,7-dihydro-6H-pyrrolo[3,4-b]pyridin-6-yl)-4-(trifluoromethyl)pyridazin-3(2H)-one] has an IC50 of less than 100 nM. Work on CC[C@@H](COCCC(=O)N1CCN(c2ccc(C(F)(F)F)cn2)CC1)Nc1cn[nH]c(=O)c1C(F)(F)F [Example 587, 5-[[(2S)-1-(3-Oxo-3-[4-[5-(trifluoromethyl)pyridin-2-yl]piperazin-1-yl]propoxy)butan-2-yl]amino]-4-(trifluoromethyl)-2,3-dihydropyridazin-3-one] yielded an IC50 of less than 100 nM. For NCc1cc2c(cc1F)CN(c1cn[nH]c(=O)c1C(F)(F)F)C2 [Example 327, 5-(5-(Aminomethyl)-6-fluoroisoindolin-2-yl)-4-(trifluoromethyl)pyridazin-3(2H)-one], the IC50 was 100 to 1000 nM. C[C@H](COC[C@@H]1CCCN1c1cn[nH]c(=O)c1C(F)(F)F)CC(=O)N1CCN(c2ccc(C#N)cn2)CC1 [Example 128B] was tested, and the IC50 was less than 100 nM. In the case of COc1cccc2c1CN(c1cn[nH]c(=O)c1C(F)(F)F)C2 [Example 164, 5-(4-Methoxyisoindolin-2-yl)-4-(trifluoromethyl)pyridazin-3(2H)-one], the IC50 is reported as less than 100 nM. For O=c1[nH]ncc(N2Cc3cccc(OC4CCNC4)c3C2)c1Cl (stereo not shown) [Example 242, 4-Chloro-5-(4-(pyrrolidin-3-yloxy)isoindolin-2-yl)pyridazin-3(2H)-one], the IC50 was 100 to 1000 nM. For O=c1[nH]ncc(N2Cc3cccc(NCC4CCCO4)c3C2)c1C(F)(F)F (stereo not shown) [Example 254, 5-(4-(((Tetrahydrofuran-2-yl)methyl)amino)isoindolin-2-yl)-4-(trifluoromethyl)pyridazin-3(2H)-one], the IC50 was 100 to 1000 nM. With O=c1[nH]ncc(N2Cc3cc(OC4CCNCC4)cc(F)c3C2)c1C(F)(F)F [Example 3, 5-[4-fluoro-6-(piperidin-4-yloxy)-2,3-dihydro-1H-isoindol-2-yl]-4-(trifluoromethyl)-2,3-dihydropyridazin-3-one; formic acid] the IC50 was less than 100 nM. Work on N#Cc1ccc(N2CCN(C(=O)c3cccc(OC[C@@H]4C[C@@H](O)CN4c4cn[nH]c(=O)c4C(F)(F)F)c3)CC2)nc1 [Example 52] yielded an IC50 of less than 100 nM. O=C(CCNC[C@H]1c2ccccc2CN1c1cn[nH]c(=O)c1C(F)(F)F)N1CCN(c2ncc(C(F)(F)F)cn2)CC1 [Example 434, (R)-5-(1-(((3-Oxo-3-(4-(5-(trifluoromethyl)pyrimidin-2-yl)piperazin-1-yl)propyl)amino)methyl)isoindolin-2-yl)-4-(trifluoromethyl)pyridazin-3(2H)-one] gave an IC50 of no less than 1000 nM. Work on N#Cc1cnc(N2CCN(C(=O)c3cccc(OC[C@H]4c5ccccc5CN4c4cn[nH]c(=O)c4C(F)(F)F)c3)CC2)nc1 [Example 364, (R)-2-(4-(3-((2-(6-oxo-5-(trifluoromethyl)-1,6-dihydropyridazin-4-yl)isoindolin-1-yl)methoxy)benzoyl)piperazin-1-yl)pyrimidine-5-carbonitrile] yielded an IC50 of no less than 1000 nM. For Cc1ccc2c(n1)CN(c1cn[nH]c(=O)c1C(F)(F)F)C2 [Example 320, 5-(2-Methyl-5,7-dihydro-6H-pyrrolo[3,4-b]pyridin-6-yl)-4-(trifluoromethyl)pyridazin-3(2H)-one], the IC50 was less than 100 nM. For C[C@@H](COCCS(=O)(=O)N1CCN(c2ncc(C(F)(F)F)s2)CC1)Nc1cn[nH]c(=O)c1C(F)(F)F [Example 726, (S)-4-(Trifluoromethyl)-5-((1-(2-((4-(5-(trifluoromethyl)thiazol-2-yl)piperazin-1-yl)sulfonyl)ethoxy)propan-2-yl)amino)pyridazin-3(2H)-one], the IC50 was less than 100 nM. With N#Cc1ccc(N2CCN(C(=O)CCOC3Cc4ccccc4C3Oc3cn[nH]c(=O)c3C(F)(F)F)CC2)nc1 (stereo not shown) [Example 540, 6-(4-[3-[(1-[[6-Oxo-5-(trifluoromethyl)-1,6-dihydropyridazin-4-yl]oxy]-2,3-dihydro-1H-inden-2-yl)oxy]propanoyl]piperazin-1-yl)pyridine-3-carbonitrile] the IC50 was 100 to 1000 nM. O=C(CCOCCNc1cn[nH]c(=O)c1C(F)(F)F)N1CCN(c2ccc(C(F)(F)F)cn2)CC1 [Example 504, 5-[[2-(3-Oxo-3-[4-[5-(Trifluoromethyl)pyridin-2-yl]piperazin-1-yl]propoxy)ethyl]amino]-4-(trifluoromethyl)-2,3-dihydropyridazin-3-one] showed an IC50 of less than 100 nM. N#Cc1ccc(N2CCN(C(=O)C[C@@H]3CC[C@@H](COc4cn[nH]c(=O)c4Cl)O3)CC2)nc1 (single isomer, unassigned) [Example 582 Isomer A] showed an IC50 of no less than 1000 nM. Work on O=C(CCOC[C@H]1c2ccccc2CN1c1cn[nH]c(=O)c1Cl)N1CCN(c2ncc(C(F)(F)F)cn2)CC1 [Example 416, (R)-4-Chloro-5-(1-((3-oxo-3-(4-(5-(trifluoromethyl)pyrimidin-2-yl)piperazin-1-yl)propoxy)methyl)isoindolin-2-yl)pyridazin-3(2H)-one] yielded an IC50 of 100 to 1000 nM. In the case of O=C(c1cccc(OC[C@@H]2c3ccccc3CN2c2cn[nH]c(=O)c2C(F)(F)F)c1)N1CCN(c2ccc(C(F)(F)F)cn2)CC1 (single isomer, unassigned) [Example 30 Isomer B], the IC50 is reported as less than 100 nM.
